Laboratory results as given in US20210238176A1, “PESTICIDALLY-ACTIVE BICYCLIC HETEROAROMATIC COMPOUNDS” (SYNGENTA CROP PROTECTION AG, priority 2018, published 2021).

Columns and labels:
Format in all cases: in vivo
[1] = system: Myzus persicae (Green Peach Aphid); assay: Myzus persicae intrinsic activity, sucrose solution under Parafilm; conditions: 120 h, test rate 12 ppm, 5 days after infestation
Excerpt: Myzus persicae (Green Peach Aphid). Intrinsic Activity
Test compounds prepared from 10,000 ppm DMSO stock solutions were applied by pipette into 24-well microtiter plates and mixed with sucrose solution. The plates were closed with a stretched Parafilm. A plastic stencil with 24 holes was placed onto the plate and infested pea seedlings were placed directly on the Parafilm. The infested plate was closed with a gel blotting paper and another plastic stencil and then turned upside down. The samples were assessed for mortality 5 days after infestation.

[2] = system: Myzus persicae (Green Peach Aphid); assay: Myzus persicae (green peach aphid) feeding/contact activity, sunflower leaf discs; conditions: foliar, 144 h, application rate 200 ppm, aphid population of mixed ages, 6 days after infestation
Description: Myzus persicae (Green Peach Aphid): Feeding/Contact Activity
Sunflower leaf discs were placed onto agar in a 24-well microtiter plate and sprayed with aqueous test solutions prepared from 10,000 ppm DMSO stock solutions. After drying, the leaf discs were infested with an aphid population of mixed ages. The samples were assessed for mortality 6 days after infestation.

[3] = system: Myzus persicae (Green Peach Aphid); assay: Myzus persicae systemic activity, pea seedling roots in test solution; conditions: 144 h, test rate 24 ppm, systemic via pea seedling roots, 6 days
Description: Myzus persicae (Green Peach Aphid). Systemic Activity
Roots of pea seedlings infested with an aphid population of mixed ages were placed directly into aqueous test solutions prepared from 10,000 ppm DMSO stock solutions. The samples were assessed for mortality 6 days after placing seedlings into test solutions.

Row | Compound | mortality at 12 ppm [1] [%] | mortality at 200 ppm [2] [%] | mortality at 24 ppm [3] [%]
1 | COc1ccc(-n2c3cccn(Cc4ccc(Cl)nc4)c-3nc2=O)cc1 [Compound A8, 4-[(6-chloro-3-pyridyl)methyl]-1-(4-methoxyphenyl)imidazo[4,5-b]pyridin-2-one] | ≥ 80 | ≥ 80 | –
2 | O=c1nc2n(Cc3ccc(Cl)nc3)cccc-2n1-c1cc(C(F)F)ccn1 [Compound A19, 4-[(6-chloro-3-pyridyl)methyl]-1-[4-(difluoromethyl)-2-pyridyl]imidazo[4,5-b]pyridin-2-one] | ≥ 80 | – | –
3 | COc1ccccc1-n1c2cccn(Cc3ccc(Cl)nc3)c-2nc1=O [Compound A82, 4-[(6-chloro-3-pyridyl)methyl]-1-(2-methoxyphenyl)imidazo[4,5-b]pyridin-2-one] | ≥ 80 | ≥ 80 | ≥ 80
4 | O=c1nc2n(Cc3ccc(Cl)nc3)cccc-2n1-c1ccccn1 [Compound A27, 4-[(6-chloro-3-pyridyl)methyl]-1-(2-pyridyl)imidazo[4,5-b]pyridin-2-one] | ≥ 80 | – | ≥ 80
5 | O=c1nc2n(Cc3ccc(Cl)nc3)cccc-2n1-c1cccc(Cl)c1 [Compound A6, 1-(3-chlorophenyl)-4-[(6-chloro-3-pyridyl)methyl]imidazo[4,5-b]pyridin-2-one] | ≥ 80 | ≥ 80 | –
6 | O=c1nc2n(Cc3ccc(Cl)nc3)cccc-2n1-c1cccc(-c2ccccc2)c1 [Compound A1, 4-[(6-chloro-3-pyridyl)methyl]-1-(3-phenylphenyl)imidazo[4,5-b]pyridin-2-one] | ≥ 80 | ≥ 80 | –
7 | O=c1nc2n(Cc3ccc(Cl)nc3)cccc-2n1-c1ccc(C(F)(F)F)nc1 [Compound A24, 4-[(6-chloro-3-pyridyl)methyl]-1-[6-(trifluoromethyl)-3-pyridyl]imidazo[4,5-b]pyridin-2-one] | ≥ 80 | – | ≥ 80
8 | O=c1nc2n(Cc3ccc(Cl)nc3)cccc-2n1-c1ccc(Cl)cc1 [Compound A9, 1-(4-chlorophenyl)-4-[(6-chloro-3-pyridyl)methyl]imidazo[4,5-b]pyridin-2-one] | ≥ 80 | ≥ 80 | –
9 | O=c1nc2n(Cc3ccc(Cl)nc3)cccc-2n1-c1ccccc1Cl [Compound A38, 1-(2-chlorophenyl)-4-[(6-chloro-3-pyridyl)methyl]imidazo[4,5-b]pyridin-2-one] | ≥ 80 | ≥ 80 | –
10 | COC(=O)c1ccc(-n2c3cccn(Cc4ccc(Cl)nc4)c-3nc2=O)o1 [Compound A77, methyl 5-[4-[(6-chloro-3-pyridyl)methyl]-2-oxo-imidazo[4,5-b]pyridin-1-yl]furan-2-carboxylate] | ≥ 80 | – | –
11 | N#Cc1ccccc1-n1c2cccn(Cc3ccc(Cl)nc3)c-2nc1=O [Compound A40, 2-[4-[(6-chloro-3-pyridyl)methyl]-2-oxo-imidazo[4,5-b]pyridin-1-yl]benzonitrile] | ≥ 80 | ≥ 80 | ≥ 80
12 | O=c1nc2n(Cc3ccc(Cl)nc3)cccc-2n1-c1ccc(Cl)cc1Cl [Compound A41, 4-[(6-chloro-3-pyridyl)methyl]-1-(2,4-dichlorophenyl)imidazo[4,5-b]pyridin-2-one] | ≥ 80 | – | –
13 | O=c1nc2n(Cc3ccc(Cl)nc3)cccc-2n1-c1cc(F)cs1 [Compound A73, 4-[(6-chloro-3-pyridyl)methyl]-1-(4-fluoro-2-thienyl)imidazo[4,5-b]pyridin-2-one] | ≥ 80 | – | –
14 | CCn1nccc1-n1c2cccn(Cc3ccc(Cl)nc3)c-2nc1=O [Compound A89, 4-[(6-chloro-3-pyridyl)methyl]-1-(2-ethylpyrazol-3-yl)imidazo[4,5-b]pyridin-2-one] | ≥ 80 | – | –
15 | O=c1nc2n(Cc3ccc(Cl)nc3)cccc-2n1-c1cnn(-c2ccccc2)c1 [Compound A5, 4-[(6-chloro-3-pyridyl)methyl]-1-(1-phenylpyrazol-4-yl)imidazo[4,5-b]pyridin-2-one] | ≥ 80 | ≥ 80 | –
16 | O=c1nc2n(Cc3ccc(Cl)nc3)cccc-2n1-c1csc(C(F)(F)F)c1 [Compound A71, 4-[(6-chloro-3-pyridyl)methyl]-1-[5-(trifluoromethyl)-3-thienyl]imidazo[4,5-b]pyridin-2-one] | ≥ 80 | – | –
17 | O=c1nc2n(Cc3ccc(Cl)nc3)cccc-2n1-c1cncnc1 [Compound A16, 4-[(6-chloro-3-pyridyl)methyl]-1-pyrimidin-5-yl-imidazo[4,5-b]pyridin-2-one] | ≥ 80 | – | ≥ 80

Row | Compound | mortality at 12 ppm [1] [%] | mortality at 200 ppm [2] [%] | mortality at 24 ppm [3] [%]
18 | O=c1nc2n(Cc3cnc(Cl)s3)cccc-2n1-c1ccccc1 [Compound A36, 4-[(2-chlorothiazol-5-yl)methyl]-1-phenyl-imidazo[4,5-b]pyridin-2-one] | ≥ 80 | ≥ 80 | –
19 | Cc1ccc(-n2c3cccn(Cc4ccc(Cl)nc4)c-3nc2=O)s1 [Compound A67, 4-[(6-chloro-3-pyridyl)methyl]-1-(5-methyl-2-thienyl)imidazo[4,5-b]pyridin-2-one] | ≥ 80 | ≥ 80 | –
20 | O=c1nc2n(Cc3ccc(Cl)nc3)cccc-2n1-c1ccnc(C(F)(F)F)c1 [Compound A14, 4-[(6-chloro-3-pyridyl)methyl]-1-[2-(trifluoromethyl)-4-pyridyl]imidazo[4,5-b]pyridin-2-one] | ≥ 80 | ≥ 80 | –
21 | O=c1nc2n(Cc3ccc(Cl)nc3)cccc-2n1-c1csc(C(F)F)c1 [Compound A68, 4-[(6-chloro-3-pyridyl)methyl]-1-[5-(difluoromethyl)-3-thienyl]imidazo[4,5-b]pyridin-2-one] | ≥ 80 | – | –
22 | O=c1nc2n(Cc3ccc(Cl)nc3)cccc-2n1-c1ncccn1 [Compound A23, 4-[(6-chloro-3-pyridyl)methyl]-1-pyrimidin-2-yl-imidazo[4,5-b]pyridin-2-one] | – | ≥ 80 | –
23 | O=c1nc2n(Cc3ccc(Cl)nc3)cccc-2n1-c1nccnc1C(F)(F)F [Compound A42, 4-[(6-chloro-3-pyridyl)methyl]-1-[3-(trifluoromethyl)pyrazin-2-yl]imidazo[4,5-b]pyridin-2-one] | ≥ 80 | ≥ 80 | –
24 | N#Cc1ccc(-n2c3cccn(Cc4ccc(Cl)nc4)c-3nc2=O)cc1 [Compound A10, 4-[4-[(6-chloro-3-pyridyl)methyl]-2-oxo-imidazo[4,5-b]pyridin-1-yl]benzonitrile] | ≥ 80 | ≥ 80 | –
25 | N#Cc1cccc(-n2c3cccn(Cc4ccc(Cl)nc4)c-3nc2=O)c1 [Compound A11, 3-[4-[(6-chloro-3-pyridyl)methyl]-2-oxo-imidazo[4,5-b]pyridin-1-yl]benzonitrile] | ≥ 80 | ≥ 80 | –
26 | O=c1nc2n(Cc3ccc(Cl)nc3)cccc-2n1-c1cccc(C(F)(F)F)c1 [Compound A21, 4-[(6-chloro-3-pyridyl)methyl]-1-[3-(trifluoromethyl)phenyl]imidazo[4,5-b]pyridin-2-one] | ≥ 80 | ≥ 80 | –
27 | O=c1nc2n(Cc3ccc(Cl)nc3)cccc-2n1-c1cnn(C2COC2)c1 [Compound A87, 4-[(6-chloro-3-pyridyl)methyl]-1-[1-(oxetan-3-yl)pyrazol-4-yl]imidazo[4,5-b]pyridin-2-one] | – | ≥ 80 | –
28 | O=c1nc2n(Cc3ccc(Cl)nc3)cccc-2n1-c1nnc(C2CC2)o1 [Compound A79, 4-[(6-chloro-3-pyridyl)methyl]-1-(5-cyclopropyl-1,3,4-oxadiazol-2-yl)imidazo[4,5-b]pyridin-2-one] | ≥ 80 | ≥ 80 | –
29 | O=c1nc2n(Cc3ccc(Cl)nc3)cccc-2n1-c1ccccc1C(F)(F)F [Compound A81, 4-[(6-chloro-3-pyridyl)methyl]-1-[2-(trifluoromethyl)phenyl]imidazo[4,5-b]pyridin-2-one] | ≥ 80 | ≥ 80 | –
30 | COc1cccc(-n2c3cccn(Cc4ccc(Cl)nc4)c-3nc2=O)c1 [Compound A7, 4-[(6-chloro-3-pyridyl)methyl]-1-(3-methoxyphenyl)imidazo[4,5-b]pyridin-2-one] | ≥ 80 | ≥ 80 | –
31 | O=c1nc2n(Cc3ccc(Cl)nc3)cccc-2n1-c1cncc(Cl)c1 [Compound A22, 1-(5-chloro-3-pyridyl)-4-[(6-chloro-3-pyridyl)methyl]imidazo[4,5-b]pyridin-2-one] | ≥ 80 | – | ≥ 80
32 | Cc1cccc(-n2c3cccn(Cc4ccc(Cl)nc4)c-3nc2=O)c1 [Compound A29, 4-[(6-chloro-3-pyridyl)methyl]-1-(m-tolyl)imidazo[4,5-b]pyridin-2-one] | ≥ 80 | ≥ 80 | –
33 | O=c1nc2n(Cc3ccc(Cl)nc3)cccc-2n1-c1ccsc1 [Compound A47, 4-[(6-chloro-3-pyridyl)methyl]-1-(3-thienyl)imidazo[4,5-b]pyridin-2-one] | ≥ 80 | – | –
34 | Cc1ccc(C)c(-n2c3cccn(Cc4ccc(Cl)nc4)c-3nc2=O)c1 [Compound A51, 4-[(6-chloro-3-pyridyl)methyl]-1-(2,5-dimethylphenyl)imidazo[4,5-b]pyridin-2-one] | ≥ 80 | – | –
